# The source made the active and inactive calls. The calls are words filed in the database; no cut-off is given here.
# How the values were obtained:
# Staphylococcus aureus [1] = assay: Bactericidal activity against methicillin-resistant Staphylococcus aureus USA400 assessed as reduction in number of colony forming units at 5 times MIC incubated for 12 hrs by aliquots transfer to tryptic soy agar and grown for 18 to 20 hrs by Time-kill assay relative to control; type: functional; parameters: scale not given: the % may be the effect or the level left
# Enterococcus faecalis = assay: microbe, parasite or virus in culture; settings: ATCC 51299
# Staphylococcus aureus [2] = assay: microbe, parasite or virus in culture; settings: NRS 385
# Description: Antimicrobial activity against methicillin-resistant Staphylococcus aureus NRS 385 by broth liquid microdilution method
# [3] = Tmax in Sprague-Dawley rat at 50 mg/kg, po via gavage administered as a single dose measured upto 24 hrs by LC/MS/MS analysis; type: ADME, organism-based; settings: in vivo
# Staphylococcus aureus [4] = assay: microbe, parasite or virus in culture; settings: NRS384
# Description: Antimicrobial activity against methicillin-resistant Staphylococcus aureus NRS384 by broth liquid microdilution method
# Staphylococcus aureus [5] = assay: microbe, parasite or virus in culture; settings: NRS119
# Description: Antimicrobial activity against methicillin-resistant Staphylococcus aureus NRS119 by broth liquid microdilution method
# Staphylococcus aureus [6] = assay: microbe, parasite or virus in culture; settings: NRS 107
# Description: Antimicrobial activity against methicillin-sensitive Staphylococcus aureus NRS 107 by broth liquid microdilution method
# Staphylococcus aureus [7] = assay: Antimicrobial activity against methicillin-resistant Staphylococcus aureus USA400 infected in mouse J774 cells assessed as reduction in […] bacterial count at 4 times MIC incubated for 24 hrs relative to control; type: functional; parameters: scale not given: the % may be the effect or the level left
# Staphylococcus aureus [8] = assay: microbe, parasite or virus in culture; settings: NRS123
# Description: Antimicrobial activity against methicillin-resistant Staphylococcus aureus NRS123 by broth liquid microdilution method
# [9] = Aqueous solubility of compound in pH 6.8 phosphate buffer; type: physicochemical
# Enterococcus faecium = assay: Antimicrobial activity against vancomycin-resistant Enterococcus faecium ATCC 700221 by broth liquid microdilution method; type: functional
# J774 = assay: Cytotoxicity against mouse J774 cells assessed as reduction in cell viability at 4 to 8 ug/ml incubated for 24 hrs by MTS assay; type: cell-based; settings: j774, 24 h
# Staphylococcus aureus [10] = assay: microbe, parasite or virus in culture; settings: ATCC 6538
# Description: Antimicrobial activity against methicillin-sensitive Staphylococcus aureus ATCC 6538 by broth liquid microdilution method
# Streptococcus pneumoniae [11] = assay: Antimicrobial activity against cephalosporin-resistant Streptococcus pneumoniae ATCC 51916 by broth liquid microdilution method; type: functional
# [12] = Cmax in Sprague-Dawley rat at 50 mg/kg, po via gavage administered as a single dose measured upto 24 hrs by LC/MS/MS analysis; type: ADME, organism-based; parameters: dose 50 mg/kg, route oral; settings: in vivo
# [13] = Half life in Sprague-Dawley rat at 50 mg/kg, po via gavage administered as a single dose measured upto 24 hrs by LC/MS/MS analysis; type: ADME, organism-based; settings: in vivo
# Staphylococcus aureus [14] = assay: Antimicrobial activity against vancomycin-resistant Staphylococcus aureus 10 by broth liquid microdilution method; type: functional
# [15] = AUC in Sprague-Dawley rat at 50 mg/kg, po via gavage administered as a single dose measured upto 24 hrs by LC/MS/MS analysis; type: ADME, organism-based; parameters: time < 24 hr, dose 50 mg/kg, route oral; settings: in vivo
# Listeria monocytogenes = assay: Antimicrobial activity against Listeria monocytogenes ATCC 19111 by broth liquid microdilution method; type: functional
# Staphylococcus aureus [16] = assay: Antimicrobial activity against methicillin-resistant Staphylococcus aureus USA400 infected in mouse J774 cells assessed as reduction in […] bacterial count at 2 times MIC incubated for 24 hrs relative to control; type: functional; parameters: scale not given: the % may be the effect or the level left
# [17] = Volume of distribution in Sprague-Dawley rat at 50 mg/kg, po via gavage administered as a single dose measured upto 24 hrs by LC/MS/MS analysis; type: ADME, organism-based; settings: in vivo
# [18] = Clearance in Sprague-Dawley rat at 50 mg/kg, po via gavage administered as a single dose measured upto 24 hrs by LC/MS/MS analysis; type: ADME, organism-based; settings: in vivo
# Staphylococcus aureus [19] = assay: Antimicrobial activity against vancomycin-resistant Staphylococcus aureus 12 by broth liquid microdilution method; type: functional
# [20] = test system: Staphylococcus epidermidis; assay: Antimicrobial activity against methicillin-resistant Staphylococcus epidermidis NRS101 by broth liquid microdilution method; type: functional
# Staphylococcus aureus [21] = assay: Antibiofilm activity against methicillin-resistant Staphylococcus aureus USA300 at 2 times MIC incubated for 24 hrs by crystal violet staining based assay relative to control; type: functional
# Streptococcus pneumoniae [22] = assay: Antimicrobial activity against methicillin-resistant Streptococcus pneumoniae ATCC 700677 by broth liquid microdilution method; type: functional
# Escherichia coli [23] = assay: Antimicrobial activity against Escherichia coli JW55031 harboring deltatolC mutant by broth liquid microdilution method; type: functional
# Escherichia coli [24] = assay: Antimicrobial activity against Escherichia coli BW25113 by broth liquid microdilution method; type: functional
# Staphylococcus aureus [25] = assay: Antibiofilm activity against methicillin-resistant Staphylococcus aureus USA300 at 4 times MIC incubated for 24 hrs by crystal violet staining based assay relative to control; type: functional
# Staphylococcus aureus [26] = assay: Antibiofilm activity against methicillin-resistant Staphylococcus aureus USA300 incubated for 24 hrs by crystal violet staining based assay; type: functional, organism-based
# Staphylococcus aureus [27] = assay: microbe, parasite or virus in culture; settings: NRS 386
# Description: Antimicrobial activity against methicillin-resistant Staphylococcus aureus NRS 386 by broth liquid microdilution method
# Staphylococcus aureus [28] = assay: Bactericidal activity against methicillin-resistant Staphylococcus aureus USA400 assessed as 3 log reduction in number of colony forming units at 5 times MIC incubated for 10 hrs by aliquots transfer to tryptic soy agar and grown for 18 to 20 hrs by Time-kill assay; type: functional, organism-based
# Staphylococcus aureus [29] = assay: Bactericidal activity against methicillin-resistant Staphylococcus aureus USA400 assessed as reduction in number of colony forming units at 5 times MIC incubated for 10 hrs by aliquots transfer to tryptic soy agar and grown for 18 to 20 hrs by Time-kill assay relative to control; type: functional; parameters: scale not given: the % may be the effect or the level left
# Staphylococcus aureus [30] = assay: Bactericidal activity against methicillin-resistant Staphylococcus aureus USA400 assessed as 3 log reduction in number of colony forming units at 5 times MIC incubated for 10 hrs by aliquots transfer to tryptic soy agar and grown for 18 to 20 hrs by Time-kill assay relative to control; type: functional; parameters: scale not given: the % may be the effect or the level left
# Caco-2 = assay: Cytotoxicity against human Caco2 cells assessed as reduction in cell viability at 64 ug/ml by MTS assay relative to control
# Staphylococcus aureus [31] = assay: Bactericidal activity against methicillin-resistant Staphylococcus aureus USA400 assessed as reduction in number of colony forming units at 5 times MIC incubated for 24 hrs by aliquots transfer to tryptic soy agar and grown for 18 to 20 hrs by Time-kill assay; type: functional, organism-based
# Staphylococcus aureus [32] = assay: Antimicrobial activity against methicillin-resistant Staphylococcus aureus USA400 infected in mouse J774 cells assessed as reduction in […] bacterial count at 2 to 4 times MIC incubated for 24 hrs; type: functional, organism-based
# Staphylococcus aureus [33] = assay: Bactericidal activity against methicillin-resistant Staphylococcus aureus USA400 assessed as 3 log reduction in number of colony forming units at 5 times MIC incubated for 12 hrs by aliquots transfer to tryptic soy agar and grown for 18 to 20 hrs by Time-kill assay; type: functional, organism-based
structure (smiles),measurement,setting,value
C/C(=N\NC(=N)N)c1sc(-c2ccc(C#CCCN3CCC3)cc2)nc1C,Activity,Staphylococcus aureus [1],100%
same,MBC,Enterococcus faecalis,16 µg/mL
same,MIC,Enterococcus faecalis,4 µg/mL
same,MBC,Staphylococcus aureus [2],4 µg/mL
same,MIC,Staphylococcus aureus [2],4 µg/mL
same,Tmax,[3],1 h
same,MBC,Staphylococcus aureus [4],4 µg/mL
same,MIC,Staphylococcus aureus [4],2 µg/mL
same,MBC,Staphylococcus aureus [5],8 µg/mL
same,MIC,Staphylococcus aureus [5],2 µg/mL
same,MBC,Staphylococcus aureus [6],8 µg/mL
same,MIC,Staphylococcus aureus [6],2 µg/mL
same,Activity,Staphylococcus aureus [7],99.7%
same,MBC,Staphylococcus aureus [8],4 µg/mL
same,MIC,Staphylococcus aureus [8],2 µg/mL
same,solubility,[9],500 µM
same,MBC,Enterococcus faecium,8 µg/mL
same,MIC,Enterococcus faecium,2 µg/mL
same,Activity,J774,Non-Toxic
same,MBC,Staphylococcus aureus [10],8 µg/mL
same,MIC,Staphylococcus aureus [10],2 µg/mL
same,MBC,Streptococcus pneumoniae [11],8 µg/mL
same,MIC,Streptococcus pneumoniae [11],2 µg/mL
same,Cmax,[12],15600 ng/mL
same,half-life,[13],2.9 h
same,MBC,Staphylococcus aureus [14],8 µg/mL
same,MIC,Staphylococcus aureus [14],2 µg/mL
same,AUC at 24 h,[15],162 µg·h/mL
same,MBC,Listeria monocytogenes,8 µg/mL
same,MIC,Listeria monocytogenes,4 µg/mL
same,Activity,Staphylococcus aureus [16],98%
same,Vd,[17],1.29 L
same,CL/F,[18],5.17 mL/min
same,MBC,Staphylococcus aureus [19],16 µg/mL
same,MIC,Staphylococcus aureus [19],4 µg/mL
same,MBC,[20],4 µg/mL
same,MIC,[20],1 µg/mL
same,Activity,Staphylococcus aureus [21],31%
same,MBC,Streptococcus pneumoniae [22],8 µg/mL
same,MIC,Streptococcus pneumoniae [22],2 µg/mL
same,MIC,Escherichia coli [23],32 µg/mL
same,MIC,Escherichia coli [24],> 64 µg/mL
same,Activity,Staphylococcus aureus [25],41%
same,Activity,Staphylococcus aureus [26],Dose-dependent effect
same,MBC,Staphylococcus aureus [27],8 µg/mL
same,MIC,Staphylococcus aureus [27],2 µg/mL
same,Activity,Staphylococcus aureus [28],Active
C/C(=N\NC(=N)N)c1sc(-c2ccc(C#CCCN3CC(O)C3)cc2)nc1C,MBC,Enterococcus faecalis,16 µg/mL
same,MIC,Enterococcus faecalis,8 µg/mL
same,MBC,Staphylococcus aureus [2],4 µg/mL
same,MIC,Staphylococcus aureus [2],4 µg/mL
same,MBC,Staphylococcus aureus [4],4 µg/mL
same,MIC,Staphylococcus aureus [4],4 µg/mL
same,MBC,Staphylococcus aureus [5],8 µg/mL
same,MIC,Staphylococcus aureus [5],4 µg/mL
same,MBC,Staphylococcus aureus [6],4 µg/mL
same,MIC,Staphylococcus aureus [6],4 µg/mL
same,Activity,Staphylococcus aureus [7],99%
same,MBC,Staphylococcus aureus [8],8 µg/mL
same,MIC,Staphylococcus aureus [8],4 µg/mL
same,MBC,Enterococcus faecium,16 µg/mL
same,MIC,Enterococcus faecium,4 µg/mL
same,Activity,J774,Non-Toxic
same,MBC,Staphylococcus aureus [10],4 µg/mL
same,MIC,Staphylococcus aureus [10],4 µg/mL
same,MBC,Streptococcus pneumoniae [11],16 µg/mL
same,MIC,Streptococcus pneumoniae [11],4 µg/mL
same,MBC,Staphylococcus aureus [14],8 µg/mL
same,MIC,Staphylococcus aureus [14],4 µg/mL
same,MBC,Listeria monocytogenes,32 µg/mL
same,MIC,Listeria monocytogenes,4 µg/mL
same,Activity,Staphylococcus aureus [16],55%
same,MBC,Staphylococcus aureus [19],8 µg/mL
same,MIC,Staphylococcus aureus [19],4 µg/mL
same,MBC,[20],16 µg/mL
same,MIC,[20],2 µg/mL
same,Activity,Staphylococcus aureus [21],31%
same,MBC,Streptococcus pneumoniae [22],16 µg/mL
same,MIC,Streptococcus pneumoniae [22],4 µg/mL
same,Activity,Staphylococcus aureus [25],72%
same,Activity,Staphylococcus aureus [29],100%
same,Activity,Staphylococcus aureus [26],Dose-dependent effect
same,MBC,Staphylococcus aureus [27],8 µg/mL
same,MIC,Staphylococcus aureus [27],4 µg/mL
C/C(=N\NC(=N)N)c1sc(-c2ccc(C#CCCn3ccnc3)cc2)nc1C,MBC,Enterococcus faecalis,32 µg/mL
same,MIC,Enterococcus faecalis,8 µg/mL
same,MBC,Staphylococcus aureus [2],16 µg/mL
same,MIC,Staphylococcus aureus [2],4 µg/mL
same,MBC,Staphylococcus aureus [4],16 µg/mL
same,MIC,Staphylococcus aureus [4],4 µg/mL
same,MBC,Staphylococcus aureus [5],32 µg/mL
same,MIC,Staphylococcus aureus [5],8 µg/mL
same,MBC,Staphylococcus aureus [6],8 µg/mL
same,MIC,Staphylococcus aureus [6],4 µg/mL
same,MBC,Staphylococcus aureus [8],8 µg/mL
same,MIC,Staphylococcus aureus [8],4 µg/mL
same,MBC,Enterococcus faecium,16 µg/mL
same,MIC,Enterococcus faecium,4 µg/mL
same,MBC,Staphylococcus aureus [10],16 µg/mL
same,MIC,Staphylococcus aureus [10],4 µg/mL
same,MBC,Streptococcus pneumoniae [11],16 µg/mL
same,MIC,Streptococcus pneumoniae [11],8 µg/mL
same,MBC,Staphylococcus aureus [14],8 µg/mL
same,MIC,Staphylococcus aureus [14],4 µg/mL
same,MBC,Listeria monocytogenes,32 µg/mL
same,MIC,Listeria monocytogenes,8 µg/mL
same,MBC,Staphylococcus aureus [19],16 µg/mL
same,MIC,Staphylococcus aureus [19],4 µg/mL
same,Activity,Staphylococcus aureus [30],99.9%
same,MBC,[20],16 µg/mL
same,MIC,[20],4 µg/mL
same,Activity,Caco-2,70%
same,Activity,Staphylococcus aureus [21],65%
same,MBC,Streptococcus pneumoniae [22],16 µg/mL
same,MIC,Streptococcus pneumoniae [22],4 µg/mL
same,MIC,Escherichia coli [23],16 µg/mL
same,MIC,Escherichia coli [24],> 64 µg/mL
same,Activity,Staphylococcus aureus [25],81%
same,Activity,Staphylococcus aureus [26],Dose-dependent effect
same,MBC,Staphylococcus aureus [27],16 µg/mL
same,MIC,Staphylococcus aureus [27],4 µg/mL
same,Activity,Staphylococcus aureus [31],Active
CN[C@H](CC(C)C)C(=O)N[C@H]1C(=O)N[C@@H](CC(N)=O)C(=O)N[C@H]2C(=O)N[C@H]3C(=O)N[C@H](C(=O)N[C@H](C(=O)O)c4cc(O)cc(O)c4-c4cc3ccc4O)[C@H](O)c3ccc(c(Cl)c3)Oc3cc2cc(c3O[C@@H]2O[C@H](CO)[C@@H](O)[C@H](O)[C@H]2O[C@H]2C[C@](C)(N)[C@H](O)[C@H](C)O2)Oc2ccc(cc2Cl)[C@H]1O [VANCOMYCIN],MBC,Enterococcus faecalis,64 µg/mL
same,MIC,Enterococcus faecalis,32 µg/mL
same,MBC,Staphylococcus aureus [2],1 µg/mL
same,MBC,Staphylococcus aureus [4],1 µg/mL
same,MBC,Staphylococcus aureus [5],2 µg/mL
same,MBC,Staphylococcus aureus [6],2 µg/mL
same,Activity,Staphylococcus aureus [32],inactive
same,MBC,Staphylococcus aureus [8],1 µg/mL
same,MBC,Enterococcus faecium,> 64 µg/mL
same,MIC,Enterococcus faecium,> 64 µg/mL
same,MBC,Staphylococcus aureus [10],2 µg/mL
same,MIC,Streptococcus pneumoniae [11],1 µg/mL
same,MBC,Staphylococcus aureus [14],> 64 µg/mL
same,MIC,Staphylococcus aureus [14],64 µg/mL
same,MIC,Listeria monocytogenes,1 µg/mL
same,MBC,Staphylococcus aureus [19],64 µg/mL
same,MIC,Staphylococcus aureus [19],64 µg/mL
same,Activity,Staphylococcus aureus [33],Active
same,MBC,[20],2 µg/mL
same,Activity,Staphylococcus aureus [21],9%
same,MIC,Streptococcus pneumoniae [22],2 µg/mL
same,MIC,Escherichia coli [23],≤ 0.5 µg/mL
same,MIC,Escherichia coli [24],≤ 0.5 µg/mL
same,Activity,Staphylococcus aureus [25],16%
same,MBC,Staphylococcus aureus [27],1 µg/mL
